# Source: US9546354B2, “Z cells activated by zinc finger-like protein and uses thereof in cancer treatment” (National Cheng Kung University, priority 2014, dated 2017)
# “Also recorded” adds a separate entry of the source. No end group written: not given here. TMR = tetramethylrhodamine label
# Experiments:
# [1] = molecular target: T1, membrane hyaluronidase Hyal-2 (Mus musculus, UniProt O35632); experiment: staining of spleen cells with TMR-Zfra and Hyal-2 antibody, epifluorescence and confocal microscopy; assay type: binding, NOD-SCID mice; settings: 30 minutes on ice
# T1 construct: spleen cells were isolated from immune deficient NOD-SCID mice; from tissue; host or cells: spleen cells of NOD-SCID mice
# T1 sequence (O35632 21-448): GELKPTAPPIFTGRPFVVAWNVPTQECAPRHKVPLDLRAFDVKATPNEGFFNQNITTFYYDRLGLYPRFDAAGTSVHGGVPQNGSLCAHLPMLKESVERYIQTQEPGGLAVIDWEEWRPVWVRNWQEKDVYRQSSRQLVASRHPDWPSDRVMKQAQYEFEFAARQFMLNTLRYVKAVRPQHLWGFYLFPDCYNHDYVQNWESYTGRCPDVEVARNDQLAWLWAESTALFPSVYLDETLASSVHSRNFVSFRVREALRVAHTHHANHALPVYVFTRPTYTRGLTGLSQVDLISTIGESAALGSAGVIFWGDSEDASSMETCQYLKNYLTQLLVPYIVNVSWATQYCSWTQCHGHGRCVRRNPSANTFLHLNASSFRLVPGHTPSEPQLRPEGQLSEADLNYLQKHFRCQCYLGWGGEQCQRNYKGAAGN
# Protocol: FIG. 2 includes photos showing the identification of Zfra^+ Hyal-2^+ spleen cells. A and B: Spleen cells of NOD-SCID mice were isolated and stained with synthesized peptide TMR-Zfra1-31 and Hyal-2 (green fluorescence) antibody for 30 minutes on ice, and then fixed with 4% formaldehyde.
# In this example, spleen cells were isolated from immune deficient NOD-SCID mice, which are deficient in T and B lymphocytes and NK cells. The isolated spleen cells were stained with antibody against Hyal-2 (green) and TMR-Zfra (Zfra1-31 labeled with red fluorescent tetramethylrodamine) for 30 minutes on ice, and then fixed with 4% formaldehyde (FIG. 2). […] These Hyal-2^+ Zfra^+ positive cells are interchangeably referred to as “Z cells,” for cells interacting with Zfra.
# Z cell function = experiment: screen of more than 300 compounds for boosting Z cell function; settings: alone or in combination with a Zfra peptide
# Source text: In this example, more than 300 hundred compounds were screened for their activities in boosting Z cell function either alone or in combination with a Zfra peptide. From this collection of compounds, CI-4AS-1 (androgen receptor agonist) and (±)-Blebbistatin (inhibitor for non-muscle myosin II ATPase) were identified.
# spleen Z cells = experiment: level of TMR-Zfra-positive spleen Z cells by cell sorting; assay type: in vivo; settings: Zfra-treated BALB/c mice inoculated with B16F10 melanoma
# Protocol: (§1) FIG. 3 is a diagram showing identification of Z spleen cells. (A) Nude mice were pre-injected with sterile MilliQ water or a mixture of Zfra1-31 (2 mM in 100 μl sterile water) in 4 consecutive weeks, followed by inoculating malignant breast MDA-MB-231 cells on both flanks 7 and 50 days later. Tumor sizes on both flanks (blue and red) were measured daily. […] These mice were sacrificed, and TMR-Zfra-positive spleen cells were isolated by cell sorting. TMR-Zfra-positive Z spleen cells were around 25% in Zfra-treated mice. […] In B16F10 melanoma-growing BALB/c mice, spleen Z cells dropped down to 3.3% or even lower. In untreated control mice, Z cells are around 25-29%.
# Next, the levels of spleen Z cells in mice pre-treated with full-length Zfra1-31 or control and inoculated with B16F10 melanoma cells were examined. B16F10-growing BALB/c mice had low levels of Z cells, which were 3.3% or lower (FIG. 3C). In contrast, Zfra-treated mice had 26.1% Z cells (FIG. 3C). […] These cells are Hyal-2 positive. The observations indicate that Z cells (e.g., Hyal-2 positive spleen cells) are depleted in mice having cancer growths, and that treatment with Zfra increases the number of Z cells in mice having cancer growths.
# Spleen cells from the mice were isolated and stained with synthesized peptide TMR-Zfra1-31 (Tetramethylrhodamine-Zfra, excitation 550 nm, emission 573 nm) for 30 minutes on ice.
# breast MDA-MB-231 cells = experiment: breast MDA-MB-231 xenograft growth in pre-injected nude mice; assay type: in vivo; settings: pre-injected once per week for 4 weeks
# Protocol: as §1
# melanoma B16F10 cells [2] = experiment: melanoma B16F10 growth in pre-injected BALB/c mice; assay type: in vivo; settings: pre-injection before inoculation, immune competent BALB/c mice
# Protocol: as §1
# FIG. 4A is a diagram showing in vivo animal models design to test the anticancer efficacy of chemical drugs and “Z cells” activation. Immune competent BALB/c mice or immune deficient NOD-SCID mice were pre-injected with CI-4AS-1 or (±)-Blebbistatin with or without zinc finger-like Zfra4-10 peptide once per week for 3 consecutive weeks, and then inoculated with 2.5×10^6 or 1.5×10^6 malignant melanoma B16F10 cells at both right and left flanks. After 60 days, spleen cells transferred were performed from BALB/c to NOD-SCID mice via tail veins injection. Thirty days later, the recipient mice were inoculated with 1.5×10^6 malignant melanoma B16F10 cells at both right and left flanks. […]
# DsRed-Hyal-2 = experiment: Förster resonance energy transfer (FRET) analysis; assay type: binding; settings: versus EGFP and DsRed controls, n=10, p<0.005
# Z cells = experiment: Z cell activation by Zfra peptide; assay type: cell-based, BALB/c mice; settings: in vivo and in vitro
# Protocol: Briefly, spleen cells were isolated from BALB/c mice and then cultured overnight. These cells were stimulated with Zfra4-10 peptide (10 μM) for 16-24 hr, and then stained with TMR-Zfra, followed by isolating the cells using a cell sorter. Z+ and Z− cell populations were counted and injected via tail veins of BALB/c. […] FIG. 5.
# WWOX = experiment: Ser14 phosphorylation of WWOX and Wwox protein level in the lung of treated mice; assay type: in vivo, BALB/c mice
# Protocol: (§2) FIG. 1 includes photos showing that Zfra suppresses melanoma B16F10 metastasis to the lung and cancer stemness. BALB/c mice were pre-injected with sterile MilliQ water or Zfra4-10 (1 mM in 100 μl sterile water) in 3 consecutive weeks. Post-treatment for a week, these mice were inoculated with melanoma B16F10 cells via tail veins (2×10^5 cells in 100 μl PBS). Control mice died 50 days later, and Zfra-treated mice were alive and sacrificed for examination. A: Shown on the lung surface are the metastatic tumor foci as dark areas in control mice. […] No metastases were found in other organs in both mice. C: Zfra suppressed Ser14 phosphorylation of […] (or Wwox) in the lung of Zfra treated mice (˜65% suppression).
# (§3) Importantly, cancer cell stemness, as determined by the expression of pluripotent stem cell markers Oct-4 and SSEA-4, was blocked in the lungs of Zfra4-10 treated mice (FIG. 1D). Thus, when WWOX phosphorylation at Ser14 is blocked by Zfra, cancer cell metastasis and stemness is prevented.
# melanoma B16F10 cells [3] = experiment: melanoma B16F10 lung metastasis after tail-vein inoculation in pre-injected BALB/c mice; assay type: in vivo
# Protocol: as §2
# BALB/c mice were pre-injected with sterile MilliQ water or Zfra4-10 (1 mM in 100 μl sterile water) once per week in three consecutive weeks. Following one week post-treatment, the mice were inoculated with melanoma B16F10 cells via tail veins (2×10^5 cells in 100 μl PBS).
# as §3
molecule,measurement,setting,value
TMR-Zfra1-31: Zfra1-31 labeled with red fluorescent tetramethylrodamine ({TMR}-MSSRRSSSCKYCEQDFRAHTQKNAATPFLAN; cysteine pairing not given here),binding to or colocalization with membrane Hyal-2 on spleen cells,[1],bound to membrane hyaluronidase Hyal-2
same,binding to or colocalization with membrane Hyal-2 on spleen cells,[1]; listed as TMR-Zfra,colocalization of both proteins on the cell surface
Cc1ccc2c(c1)C(=O)C1(O)CCN(c3ccccc3)C1=N2 (racemic) [(±)-Blebbistatin],outcome of screen for boosting Z cell function,Z cell function,identified
NH-MSSRRSSSCKYCEQDFRAHTQKNAATPFLAN-COOH (H-MSSRRSSSCKYCEQDFRAHTQKNAATPFLAN-OH; cysteine pairing not given here) [Zfra1-31],TMR-Zfra-positive Z spleen cells,spleen Z cells,26.1%
same,growth of breast MDA-MB-231 xenografts,breast MDA-MB-231 cells,resisted the growth
CI-4AS-1,outcome of screen for boosting Z cell function,Z cell function,identified
"Zfra: Zfra peptide, form not stated at the place (Zfra1-31 or Zfra4-10) (MSSRRSSSCKYCEQDFRAHTQKNAATPFLAN)",TMR-Zfra-positive Z spleen cells,spleen Z cells,around 25%
same,growth of melanoma B16F10 in BALB/c mice,melanoma B16F10 cells [2],completely blocked
same,binding to Hyal-2 by FRET,DsRed-Hyal-2,binding of Zfra to membrane Hyal-2
"EGFP-Zfra: EGFP-tagged Zfra used in FRET analysis with DsRed-Hyal-2 (MSSRRSSSCKYCEQDFRAHTQKNAATPFLAN; cysteine pairing not given here; also: EGFP tag fused, end not given here) [reference compound]",binding to Hyal-2 by FRET,DsRed-Hyal-2,significant binding
RRSSSCK [Zfra4-10],Z cell activation,Z cells,sufficient to induce Z cell activation both in vivo and in vitro
same,growth of melanoma B16F10 in BALB/c mice,melanoma B16F10 cells [2],prevented melanoma B16F10 growth
same,Wwox protein levels,WWOX; lung of Zfra treated mice,not suppressed
same,suppression of Ser14 phosphorylation of WWgre (or Wwox) in the lung,"WWOX; lung of Zfra treated mice, FIG. 1C",~65%
same,Ser14 phosphorylation of WWOX (in words),"WWOX; lung of treated mice, FIG. 1C",inhibition of Ser14 phosphorylation of WWOX
same,cancer cell stemness (pluripotent markers Oct-4 and SSEA-4) in the lung,"melanoma B16F10 cells [3]; B16F10 cells in the lung, FIG. 1D",suppressed the stemness; also recorded: blocked
same,melanoma B16F10 metastasis to the lung,melanoma B16F10 cells [3]; Zfra4-10 1 mM in 100 μl once per week for 3 weeks before 2×10^5 B16F10 cells via tail veins,Metastasis was not found; also recorded: suppressed melanoma B16F10 metastasis to the lung
same,survival of mice,melanoma B16F10 cells [3]; when control mice died 50 days after inoculation of B16F10 cells,remained alive
